ChEMBL document CHEMBL2016567, “Novel acridinedione derivatives: design, synthesis, SIRT1 enzyme and tumor cell growth inhibition studies” (Bioorg Med Chem Lett, 2012)
Active and inactive are the calls of the source. No cut-off for these calls is given here.

Tests used:
[1] = target: T1, NAD-dependent protein deacetylase sirtuin-1 (Homo sapiens) (UniProt Q96EB6); assay: Inhibition of human SIRT1 using Fluor-de-Lys as substrate at 50 uM
T1 sequence (whole entry): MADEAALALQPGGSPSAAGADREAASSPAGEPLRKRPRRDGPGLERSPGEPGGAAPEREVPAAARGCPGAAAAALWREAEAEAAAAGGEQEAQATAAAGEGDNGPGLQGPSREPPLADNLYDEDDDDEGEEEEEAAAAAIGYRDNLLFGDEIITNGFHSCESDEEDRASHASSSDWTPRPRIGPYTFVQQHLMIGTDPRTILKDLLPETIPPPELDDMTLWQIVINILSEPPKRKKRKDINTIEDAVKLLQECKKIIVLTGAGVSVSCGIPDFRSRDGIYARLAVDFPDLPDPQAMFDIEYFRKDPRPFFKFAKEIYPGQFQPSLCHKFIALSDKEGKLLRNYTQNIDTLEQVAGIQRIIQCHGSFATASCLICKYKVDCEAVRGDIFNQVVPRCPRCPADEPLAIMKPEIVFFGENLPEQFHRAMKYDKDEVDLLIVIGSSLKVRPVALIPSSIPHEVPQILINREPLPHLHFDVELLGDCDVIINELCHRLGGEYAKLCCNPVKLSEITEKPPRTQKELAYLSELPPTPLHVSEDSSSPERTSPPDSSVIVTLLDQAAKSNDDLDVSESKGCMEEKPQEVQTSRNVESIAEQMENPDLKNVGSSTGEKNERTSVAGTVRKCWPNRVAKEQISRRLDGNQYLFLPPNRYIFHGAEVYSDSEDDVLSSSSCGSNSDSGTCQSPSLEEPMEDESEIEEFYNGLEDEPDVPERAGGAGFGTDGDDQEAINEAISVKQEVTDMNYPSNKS

[2] = target: T2, NAD-dependent protein deacetylase sirtuin-1 (Homo sapiens, UniProt Q96EB6); assay: Inhibition of human SIRT1 using Fluor-de-Lys as substrate
T2 sequence (Q96EB6 whole entry): T1 sequence (whole entry)

[3] = tested on: MDA-MB-231; assay: Growth inhibition of human MDA-MB-231 cells; assay type: functional, cell-based
[4] = tested on: HEK293; assay: Cytotoxicity against human HEK293 cells at 10 uM; assay type: cell-based; conditions: hek293, 10 µM
[5] = tested on: K562; assay: Growth inhibition of human K562 cells; assay type: functional, cell-based
[6] = target: T1, NAD-dependent protein deacetylase sirtuin-1 (Homo sapiens); assay: Inhibition of SIRT1 in human MDA-MB-231 cells assessed as increase in p53 acetylation at lysine 382 residue after 24 hrs by Western blot analysis; assay type: cell-based
[7] = tested on: MDA-MB-231; assay: Decrease in SIRT1 protein level in human MDA-MB-231 cells after 24 hrs by Western blot analysis; assay type: functional, cell-based

| inhibition [1] | IC50 [2] [µM] | IC50 [3] [µM] | IC50 [5] [µM] | inhibition [6] | Structure (SMILES) | Activity [4] | Activity [7] |
| --- | --- | --- | --- | --- | --- | --- | --- |
| 21.5% | – | – | – | – | CC1(C)CC(=O)C2=C(C1)N(NC(=O)c1ccccc1)C1=C(C(=O)CC(C)(C)C1)C2c1cccc(OCc2ccccc2)c1 | – | – |
| 4.7% | – | – | – | – | CC1(C)CC(=O)C2=C(C1)N(NC(=O)c1ccc(Cl)cc1Cl)C1=C(C(=O)CC(C)(C)C1)C2c1cccc(OCc2ccccc2)c1 | – | – |
| 53.7% | – | > 50 | 10 | – | CC1(C)CC(=O)C2=C(C1)N(NC(=O)c1ccncc1)C1=C(C(=O)CC(C)(C)C1)C2c1cccc(OCc2ccccc2)c1 | Non-toxic | – |
| 83.2% | 10.1 | 0.25 | – | Dose-dependent effect | CC1(C)CC(=O)C2=C(C1)N(Nc1ccc([N+](=O)[O-])cc1[N+](=O)[O-])C1=C(C(=O)CC(C)(C)C1)C2c1ccccc1OCc1ccccc1 | Non-toxic | Dose-dependent effect |
| 33.6% | – | – | – | – | CC1(C)CC(=O)C2=C(C1)N(NC(=O)c1ccc([N+](=O)[O-])cc1)C1=C(C(=O)CC(C)(C)C1)C2c1cccc(OCc2ccccc2)c1 | – | – |
| 35.6% | – | – | – | – | CC1(C)CC(=O)C2=C(C1)N(NC(=O)c1ccc([N+](=O)[O-])cc1)C1=C(C(=O)CC(C)(C)C1)C2c1ccc(OCc2ccccc2)cc1 | – | – |
| 33.2% | – | – | – | – | CC1(C)CC(=O)C2=C(C1)N(Nc1ccc([N+](=O)[O-])cc1[N+](=O)[O-])C1=C(C(=O)CC(C)(C)C1)C2c1cccc(OCc2ccccc2)c1 | – | – |
| 51.4% | 40.1 | 0.99 | – | – | CC1(C)CC(=O)C2=C(C1)N(Nc1ccccc1)C1=C(C(=O)CC(C)(C)C1)C2c1cccc(OCc2ccccc2)c1 | Non-toxic | – |
| 54.8% | 43.3 | 6.63 | – | – | CC1(C)CC(=O)C2=C(C1)N(Nc1ccc([N+](=O)[O-])cc1[N+](=O)[O-])C1=C(C(=O)CC(C)(C)C1)C2c1ccc(OCc2ccccc2)cc1 | Non-toxic | – |

The remaining lines, values behind:

| Structure (SMILES) | inhibition [1] | IC50 [2] [µM] | IC50 [3] [µM] | IC50 [5] [µM] | inhibition [6] | Activity [4] | Activity [7] |
| --- | --- | --- | --- | --- | --- | --- | --- |
| CC1(C)CC(=O)C2=C(C1)N(Nc1ccccc1)C1=C(C(=O)CC(C)(C)C1)C2c1ccc(OCc2ccccc2)cc1 | 55.2% | 43.1 | 1.38 | – | – | Non-toxic | – |
| COc1ccc(C(=O)NN2C3=C(C(=O)CC(C)(C)C3)C(c3cccc(OCc4ccccc4)c3)C3=C2CC(C)(C)CC3=O)c(OC)n1 | 35.6% | – | – | – | – | – | – |
| CC1(C)CC(=O)C2=C(C1)N(NC(=O)c1ccc([N+](=O)[O-])cc1)C1=C(C(=O)CC(C)(C)C1)C2c1ccccc1OCc1ccccc1 | 39% | – | – | – | – | – | – |
| CC1(C)CC(=O)C2=C(C1)N(NC(=O)c1ccncc1)C1=C(C(=O)CC(C)(C)C1)C2c1ccccc1OCc1ccccc1 | 72.6% | – | 5 | 10 | – | Non-toxic | – |
| COc1ccc(C(=O)NN2C3=C(C(=O)CC(C)(C)C3)C(c3ccc(OCc4ccccc4)cc3)C3=C2CC(C)(C)CC3=O)c(OC)n1 | 55.1% | 25 | 0.31 | – | – | Non-toxic | – |
| COc1ccc(C(=O)NN2C3=C(C(=O)CC(C)(C)C3)C(c3ccccc3OCc3ccccc3)C3=C2CC(C)(C)CC3=O)c(OC)n1 | 35.2% | – | – | – | – | – | – |
| Cc1ccc(C(=O)Nc2ccc(S(=O)(=O)O)c3cc(S(=O)(=O)O)cc(S(=O)(=O)O)c23)cc1NC(=O)c1cccc(NC(=O)Nc2cccc(C(=O)Nc3cc(C(=O)Nc4ccc(S(=O)(=O)O)c5cc(S(=O)(=O)O)cc(S(=O)(=O)O)c45)ccc3C)c2)c1 [SURAMIN] | 53.9% | – | 31.2 | 18.5 | – | Non-toxic | – |
| CC1(C)CC(=O)C2=C(C1)N(NC(=O)c1ccccc1)C1=C(C(=O)CC(C)(C)C1)C2c1ccccc1OCc1ccccc1 | 39.7% | – | – | – | – | – | – |
| CC1(C)CC(=O)C2=C(C1)N(NC(=O)c1ccccc1)C1=C(C(=O)CC(C)(C)C1)C2c1ccc(OCc2ccccc2)cc1 | 52% | 46 | 3.16 | – | – | Non-toxic | – |
| COc1cccc2c1C(=O)c1c(O)c3c(c(O)c1C2=O)C[C@@](O)(C(=O)CO)C[C@@H]3O[C@H]1C[C@H](N)[C@H](O)[C@H](C)O1 [DOXORUBICIN] | – | – | 10 | – | – | Non-toxic | – |
| CC1(C)CC(=O)C2=C(C1)N(NC(=O)c1ccncc1)C1=C(C(=O)CC(C)(C)C1)C2c1ccc(OCc2ccccc2)cc1 | inactive | – | > 50 | > 50 | – | Non-toxic | – |
| CC1(C)CC(=O)C2=C(C1)N(NC(=O)c1ccc(Cl)cc1Cl)C1=C(C(=O)CC(C)(C)C1)C2c1ccc(OCc2ccccc2)cc1 | 3.6% | – | – | – | – | – | – |
| CC1(C)CC(=O)C2=C(C1)N(Nc1ccccc1)C1=C(C(=O)CC(C)(C)C1)C2c1ccccc1OCc1ccccc1 | 82.1% | 11.1 | 50 | – | – | Non-toxic | – |
